Data as given in patent US20220040335A1, “RADIOLABELED PABA AND DERIVATIVES THEREOF FOR USE AS FUNCTIONAL RENAL IMAGING AGENTS” (priority 2018, published 2022).
“Also recorded” adds a separate entry of the source.

Experiment: Dynamic PET/CT renal imaging (renogram) after intravenous injection in healthy rats
Assay type: in vivo, Wistar rats
Procedure: Methods for renal imaging: ^11C-PABA was synthesized using cGMP conditions at the JHU PET Center. Four female healthy Wistar rats (250-275 g of bodyweight) were injected with 30.5±10.3 MBq of ^11C-PABA through a tail-vein catheter and a dynamic PET scan was performed (15 frames×20 seconds, 5 frames×1 minute, 10 frames×5 minutes, total of 60 minutes) using the nanoScan PET/CT (Mediso). Subsequently, CT imaging was performed for anatomical co-registration. As a control, the same rats were also injected intravenously with 18.5 MBq of ^99mTc-MAG3 (Cardinal Health) and scanned using planar scintigraphy with the nanoSPECT/CT (Nanoscan). The images were analyzed with VivoQuant 3.0 (Invicro) and regions of interest were drawn using the CT as reference.

[1] = representative healthy rat, FIG. 3

## Nc1ccc([11C](=O)O)cc1 [^11C-PABA, [Carboxy-11C] 4-Aminobenzoic acid]
FIG. 4A
  time after injection at which PET/CT signal localized in the right kidney: 220 to 240 s
At time-to-peak, healthy rats, FIG. 3
  signal in the kidneys compared to liver and spleen: 30-40 ×
Dynamic PET after IV injection, healthy rats, FIG. 2
  renal clearance / excretion from kidneys (in words): rapid excretion; also recorded: rapid renal clearance; also recorded: rapidly localized in the kidneys
Dynamic PET, healthy rats
  background accumulation of the tracer in other organs (in words): very low background accumulation
kidneys, dynamic PET after IV injection of 30.5±10.3 MBq, healthy female Wistar rats
  time-to-peak in time-activity curves: 9.5 ± 1.4 min
[1]
  cortical phase of renogram: 4.7 to 10 min
  vascular phase of renogram: 0 to 4.7 min
